Reference: US20060057101A1, “German cockroach attractant” (priority 2004, published 2006)

Legend:
male German cockroaches = assay: two-choice olfactometer behavioral assay; format: in vivo, Blattella germanica
Protocol: FIG. 3 is a graphic representation of behavioral responses of male German cockroaches to one female equivalent of a crude extract of many virgin females and to various doses of the synthetic pheromone, gentisyl quinone isovalerate. The pheromone was applied in 20 μl of methylene chloride to a filter paper disc and presented to single males acclimated in the two-choice olfactometer vs. a methylene chloride control filter paper. Behavioral response is defined as quiescent males that were activated and ran out of their cage. Each assay consisted of testing 10-16 males in individual olfactometers and the assays were replicated 3-18 times. The mean responses and SEM are indicated.
FIG. 4 is a graphic representation of behavioral responses of male German cockroaches to one female equivalent of a crude extract of many virgin females and to various doses of the synthetic pheromone, gentisyl quinone isovalerate. Procedures are as in FIG. 3, but reported is the latency in seconds before males left their cages.
The biological activity of extracts and fractions was assayed both behaviorally and with an electroantennogram (“EAG”). Schal et al., “Site of Pheromone Production in Female Supella longipalpa (F.) (Dictyoptera: Blattellidae): Behavioral, Electrophysiological, and Morphological Evidence,” Annals Entomol. Soc. Amer. 85:605-611 (1992), which is hereby incorporated by reference in its entirety. For behavioral assays a two-choice olfactometer was used. Liang et al., “Effects of Pheromone Concentration and Photoperiod on the Behavioral Response Sequence to Sex Pheromone in the Male Brown-Banded Cockroach, Supella longipalpa,” J. Insect Behavior 3:211-223 (1990), and Liang et al., “Volatile Sex Pheromone in the Female German Cockroach,” Experientia 49:324-328 (1993a), which are hereby incorporated by reference in their entirety. Briefly, a straight Plexiglas tube (55 cm long and 3 cm ID) was divided along 15 cm of its upwind end and air was drawn through it at 20 cm/min. […] The percentage of insects running upwind and the latency, in seconds, before they responded were recorded.

[1] = test system: brownbanded cockroach males; conditions: cited from earlier work

For `CC(C)CC(=O)OCC1=CC(=O)C=CC1=O` [synthetic pheromone, gentisyl quinone isovalerate], the “males responding (quiescent males activated and running out of their cage)” value (male German cockroaches; 10-100 ng of the pheromone on filter paper, FIG. 3) was “More than 60%”, the “latency of the male response before leaving cage” value (male German cockroaches; doses between 10 ng and 1 μg, FIG. 4) was “shortest latency” and the “dose-response of male behavioral response” value (male German cockroaches; various doses on filter paper, FIG. 3) was “clear dose-response”.

For supellapyrone, the “increase in number of adult males trapped relative to respective controls” value ([1]; all treatments, field traps) is listed as 6-28 times and the “attractiveness to males in the field” value ([1]; field, jar traps) is listed as “highly attractive”.
